# Legend:
# Type in all cases: cell-based, human
# [1] = test system: UACC-62; assay: NCI screening panel, UACC-62 (Melanoma)
# Protocol: (§1) Representative compounds of Formula I were screened using the National Cancer Institute (NCI) screening panel, which consists of a panel of human tumor cell lines, representing leukemia, melanoma, and cancers of the lung, colon, ovary, breast, prostate and renal system.
# (§2) After 24 h, two plates of each cell line are fixed in situ with TCA, to represent a measurement of the cell population for each cell line at the time of drug addition (Tz). Experimental drugs are solubilised in dimethyl sulfoxide at 400-fold the desired final maximum test concentration and stored frozen prior to use. At the time of drug addition, an aliquot of frozen concentrate is thawed and diluted to twice the desired final maximum test concentration with complete medium containing 50 μg/mL gentamicin. Additional four, 10-fold or ½ log serial dilutions are made to provide a total of five drug concentrations plus control. Aliquots of 100 μl of these different drug dilutions are added to the appropriate microtiter wells already containing 100 μl of medium, resulting in the required final drug concentrations.
# (§3) Following drug addition, the plates are incubated for an additional 48 h at 37° C., 5% CO2, 95% air, and 100% relative humidity. For adherent cells, the assay is terminated by the addition of cold TCA (trichloroacetic acid). Cells are fixed in situ by the gentle addition of 50 μl of cold 50% (w/v) TCA (final concentration, 10% TCA) and incubated for 60 minutes at 4° C. The supernatant is discarded, and the plates are washed five times with tap water and air dried. Sulforhodamine B (SRB) solution (100 μl) at 0.4% (w/v) in 1% acetic acid is added to each well, and plates are incubated for 10 minutes at room temperature. After staining, unbound dye is removed by washing five times with 1% acetic acid and the plates are air dried. Bound stain is subsequently solubilised with 10 mM trizma base, and the absorbance is read on an automated plate reader at a wavelength of 515 nm. For suspension cells, the methodology is the same except that the assay is terminated by fixing settled cells at the bottom of the wells by gently adding 50 μl of 80% TCA (final concentration, 16% TCA). Using the seven absorbance measurements [time zero, (Tz), control growth, (C), and test growth in the presence of drug at the five concentration levels (Ti)], the percentage growth is calculated at each of the drug concentrations levels. Percentage growth inhibition is calculated as: [(Ti−Tz)/(C−Tz)]×100 for concentrations for which Ti>/=Tz and [(Ti−Tz)/Tz]×100 for concentrations for which Ti<Tz.
# (§4) Three dose response parameters are calculated for each experimental agent. Growth inhibition of 50% (GI50) is calculated from [(Ti−Tz)/(C−Tz)]×100=50, which is the drug concentration resulting in a 50% reduction in the net protein increase (as measured by SRB staining) in control cells during the drug incubation. The drug concentration resulting in total growth inhibition (TGI) is calculated from Ti=Tz. The LC50 (concentration of drug resulting in a 50% reduction in the measured protein at the end of the drug treatment as compared to that at the beginning) indicating a net loss of cells following treatment is calculated from [(Ti−Tz)/Tz]×100=−50. Values are calculated for each of these three parameters if the level of activity is reached. However, if the effect is not reached or is exceeded, the value for that parameter is expressed as greater or less than the maximum or minimum concentration tested.
# [2] = test system: PC-3; assay: NCI screening panel, PC-3 (Prostate Cancer)
# Protocol: as §1, §2, §3, §4
# [3] = test system: 786-0; assay: NCI screening panel, 786-0 (Renal Cancer)
# Protocol: as §1, §2, §3, §4
# [4] = test system: HL-60(TB); assay: NCI screening panel, HL-60(TB) (Leukemia)
# Protocol: as §1, §2, §3, §4
# [5] = test system: RXF 393; assay: NCI screening panel, RXF 393 (Renal Cancer)
# Protocol: as §1, §2, §3, §4
# [6] = test system: HT29; assay: NCI screening panel, HT29 (Colon Cancer)
# Protocol: as §1, §2, §3, §4
# [7] = test system: MCF7; assay: NCI screening panel, MCF7 (Breast Cancer)
# Protocol: as §1, §2, §3, §4
# [8] = test system: SR; assay: NCI screening panel, SR (Leukemia)
# Protocol: as §1, §2, §3, §4
# [9] = test system: NCI-H322M; assay: NCI screening panel, NCI-H322M (Non-Small Cell Lung Cancer)
# Protocol: as §1, §2, §3, §4
# [10] = test system: LOX IMVI; assay: NCI screening panel, LOX IMVI (Melanoma)
# Protocol: as §1, §2, §3, §4
# [11] = test system: OVCAR-5; assay: NCI screening panel, OVCAR-5 (Ovarian Cancer)
# Protocol: as §1, §2, §3, §4
# [12] = test system: M14; assay: NCI screening panel, M14 (Melanoma)
# Protocol: as §1, §2, §3, §4
# [13] = test system: SW-620; assay: NCI screening panel, SW-620 (Colon Cancer)
# Protocol: as §1, §2, §3, §4
# [14] = test system: OVCAR-8; assay: NCI screening panel, OVCAR-8 (Ovarian Cancer)
# Protocol: as §1, §2, §3, §4
# [15] = test system: A498; assay: NCI screening panel, A498 (Renal Cancer)
# Protocol: as §1, §2, §3, §4
# [16] = test system: NCI-H23; assay: NCI screening panel, NCI-H23 (Non-Small Cell Lung Cancer)
# Protocol: as §1, §2, §3, §4
# [17] = test system: RPMI-8226; assay: NCI screening panel, RPMI-8226 (Leukemia)
# Protocol: as §1, §2, §3, §4
# [18] = test system: BT-549; assay: NCI screening panel, BT-549 (Breast Cancer)
# Protocol: as §1, §2, §3, §4
# [19] = test system: COLO 205; assay: NCI screening panel, COLO 205 (Colon Cancer)
# Protocol: as §1, §2, §3, §4
smiles,measurement,setting,value
"CC(C)C[C@H](NC(=O)[C@H](COC(F)F)NC(=O)[C@H](COC(F)F)NC(=O)[C@H](COC(F)F)NC(=O)CN1CCOCC1)C(=O)[C@@]1(C)CO1 [Example 17, (2S)-3-(difluoromethoxy)-N-[(1S)-1-(difluoromethoxymethyl)-2-[[(1S)-1-(difluoro-methoxymethyl)-2-[[(1S)-3-methyl-1-[(2R)-2-methyloxirane-2-carbonyl]butyl]amino]-2-oxo-ethyl]amino]-2-oxo-ethyl]-2-[(2-mor-pholinoacetyl)amino]-propanamide]",Log10GI50,[1],−7.14
same,Log10LC50,[1],−5.39
same,Log10TGI50,[1],−6.42
same,Log10GI50,[2],−6.76
same,Log10LC50,[2],−5.02
same,Log10TGI50,[2],−6.12
same,Log10GI50,[3],−5.99
same,Log10LC50,[3],>−4.00
same,Log10TGI50,[3],−4.92
same,Log10GI50,[4],−6.70
same,Log10LC50,[4],>−4.00
same,Log10TGI50,[4],−5.87
same,Log10GI50,[5],−6.48
same,Log10LC50,[5],−5.41
same,Log10TGI50,[5],−5.94
same,Log10GI50,[6],−7.30
same,Log10LC50,[6],>−4.00
same,Log10TGI50,[6],−6.28
same,Log10GI50,[7],−7.57
same,Log10LC50,[7],>−4.00
same,Log10TGI50,[7],>−4.00
same,Log10GI50,[8],−7.27
same,Log10TGI50,[8],>−4.00
same,Log10GI50,[9],−6.58
same,Log10LC50,[9],−4.92
same,Log10TGI50,[9],−5.73
same,Log10GI50,[10],−7.36
same,Log10LC50,[10],−6.36
same,Log10TGI50,[10],−6.81
same,Log10GI50,[11],−6.55
same,Log10LC50,[11],>−4.00
same,Log10TGI50,[11],−5.71
same,Log10GI50,[12],−6.59
same,Log10LC50,[12],>−4.00
same,Log10TGI50,[12],−5.41
same,Log10GI50,[13],−7.08
same,Log10LC50,[13],>−4.00
same,Log10TGI50,[13],−4.95
same,Log10GI50,[14],−6.31
same,Log10LC50,[14],>−4.00
same,Log10TGI50,[14],−5.25
same,Log10GI50,[15],−6.87
same,Log10LC50,[15],−5.44
same,Log10TGI50,[15],−6.22
same,Log10GI50,[16],−7.15
same,Log10LC50,[16],>−4.00
same,Log10TGI50,[16],−5.98
same,Log10GI50,[17],−7.14
same,Log10LC50,[17],>−4.00
same,Log10TGI50,[17],-6.15
same,Log10GI50,[18],−7.11
same,Log10LC50,[18],>−4.00
same,Log10TGI50,[18],−6.43
same,Log10GI50,[19],−6.62
same,Log10LC50,[19],>−4.00
same,Log10TGI50,[19],−4.76
